Reference: publication PMC9120013, “Ribosome inhibition by C9ORF72-ALS/FTD-associated poly-PR and poly-GR proteins revealed by cryo-EM” (Nature Communications, 2022)
Read-outs that look alike come from different tables or passages of the source. Ends that are not written are not given here.

Tests used:
[1] = molecular target: Escherichia coli 70S ribosome (E. coli)
[2] = molecular target: Oryctolagus cuniculus (rabbit) 80S ribosome (rabbit (Oryctolagus cuniculus)) (UniProt G1SVW5)
[3] = molecular target: translation of nanoluciferase mRNA in rabbit reticulocyte lysates; experiment: Nanoluciferase mRNA translation in rabbit reticulocyte lysate, inhibitor preincubated 5 min before mRNA; format: biochemical; settings: for IC50: same extracts as the DPR assay, read-out: IC50 in RRL extracts, range stated in the response to reviewers
Source text: Rabbit reticulocyte lysates (RRL, Promega) were used to investigate the inhibition of translation by DPR proteins. We independently monitored translation of two mRNAs encoding non-homologous proteins of different lengths: nanoluciferase[71] and firefly luciferase. To measure the IC50s of the translational inhibitors cycloheximide (Akros Organics), harringtonine (AbCam), GDPCP (Jena Biosciences), PR20 and GR20, we monitored the translation of nanoluciferase mRNA in nuclease-treated RRL (Promega). […] Next, 10 ng/μl (final concentration) 6xhis-Nanoluciferase mRNA flanked with the 5'- and 3'-UTR from rabbit beta-globin[48] was added and the luminescence reactions were continuously measured by an Infinite m1000 pro microplate reader (Tecan) for 15 min at 30 °C. The 1st derivative of the luminescence reactions was determined in Prism 8 (GraphPad Software, LLC) and the maximum was identified and the mean of three maximums from independent experiments for each inhibitor was taken as the rate. The rates were plotted versus inhibitors concentration, and the plots were fitted in Prism 8 (GraphPad Software, LLC) to a 3-parameter inhibition model (Y = baseline + (max-baseline)/(1 + X/IC50)) to obtain the IC50 values where the baseline was constrained to 0. This procedure was modified to separate translation initiation from translation elongation by changing the time of addition of the inhibitors to ~300 s after mRNA addition when RLUs had reached a value of ~50,000. Here, the maximum of the first derivative was taken in the 2nd or later measurement taken after inhibitor addition.
The following additional controls indicate that DPR-induced changes in fluorescence were caused by translation inhibition.

[4] = tested on: ribosomes on endogenous beta-globin mRNA in RRL; experiment: Toeprinting of 80S and 4-5-mer polysome fractions on beta-globin mRNA; format: biochemical, rabbit; settings: for Ratio (START to CDS) / Normalized ratio START/ORF: 80S fraction, primer A, Fig. 2f independent repeat; for Normalized ratio START/ORF: no inhibitor = 1; for normalized ratio START to CDS, MEAN: 4-5-mer, primer B, mean of ten 20 bp windows
Procedure: Toeprinting analyses were carried out similarly to those in refs. [51],[74], using 80S and polysome (4–5-some) fractions collected from polysome profiles as described in “Polysome Profiles” except that reactions were doubled in size (200 μL), performed at 37 °C, and were stopped with ice-cold 1xAMV Buffer (50 mM Tris-HCl pH 8.3, 50 mM KCl, 5 mM MgCl2) with 200 μg/ml cycloheximide before being separated on at 10–35% sucrose gradient in 1xAMV buffer with 0.5 mM spermidine and 1 mM DTT. 600 μl of each fraction (80S or 4–5-mer) was supplemented with 10 mM DTT. Then 10 U of AMV reverse transcriptase (Promega), 120 nmol dNTPs, and 120 pmol of a 5'[6-carboxyfluorescein (FAM)]-labeled primer (IDT-DNA) were added. Two primers specific to the endogenous beta-globin mRNA in RRL were used in separate reactions: 5′-(FAM)-GGACTCGAAGAACCTCTG (as in ref. [74]) annealed 136 nucleotides downstream of the AUG or 5′-(FAM)-[…] annealed to the end of the 3'-UTR. Primers were extended at 37 °C for 30 min, and then the reaction were extracted in 1:1 phenol:chloroform, supplemented with 1/10 volume of 3 M sodium acetate pH 5.2, and precipitated with 2.5 volumes of 100% ethanol. Pellets were resuspended in 10 μl of deionized formamide (Applied Biosystems) with 1/20 volume of a 35-500 nucleotide orange-dye labeled DNA size standard (MCLab) and loaded onto a 96-well plate. The samples were sent for fragment analysis by capillary electrophoresis to the UMass Chan Medical School Molecular Biology Core Laboratory using an ABI3730XL DNA Fragment Analyzer with capillaries loaded with POP-7 polymer and with an injection voltage of 12.5 kV. Data collection was performed with GeneMapper software (ABI). Data were exported as.fsa files and were analyzed (aligning to ladder and background correction) in GeneMarker 3.0.1 software (SoftGenetics) running in demo mode. Screen captures of traces were taken and traces were integrated using the “Quantification” feature and manually adjusting sliders to include the desired nucleotide range.

E. coli 70S ribosomes = experiment: Kinetic peptidyl transfer (puromycin) assay on E. coli 70S ribosomes; format: biochemical; settings: for Ki: n = 2
Procedure: The effects of GRn or PRn on peptide bond formation in E. coli ribosome were tested in an in vitro assay that reacts the 70S ribosome loaded with [^35S]-fMet-tRNA^fMet in the P-site with puromycin, an A-site tRNA mimic, and measures the release of the resulting dipeptide containing formyl-methionine covalently bonded to puromycin, as described. E. coli tRNA^fMet (Chemical Block) was aminoacylated with [^35S]-N-formyl-L-methionine (Perkin Elmer) as described. 70S ribosomes were prepared from E. coli (MRE600) as described. 70S ribosomes were stored in the ribosome-storage buffer (20 mM Tris-HCl, pH 7.0; 100 mM NH4Cl; 20 mM MgCl2) at –80 °C. A model mRNA fragment, containing the Shine-Dalgarno sequence and a spacer to position the AUG codon in the P-site and the UUC codon in the A site (GGCAAGGAGGUAAAAAUGUUC AAAAAA), was synthesized by IDT. 70S•mRNA•fMet-tRNA^fMet complexes with GRn (where n = 4, 10 or 20) or PRn (where n = 4, 10, 20 or 40) were formed as follows. 330 nM 70S ribosomes were incubated with 11 µM mRNA in buffer containing 20 mM Tris-acetate (pH 7.0), 100 mM NH4OAc, 12 mM Mg(OAc)2, for 2 min at 37 °C. 730 nM [^35S]-fMet-tRNA^fMet was added and incubated for 5 min at 37 °C. The solution was diluted 9.6-fold with the same buffer, followed by addition of a GRn or PRn repeat peptide (22x relative to its final concentration). The complex was incubated for 5 min at 37 °C prior to addition of puromycin dissolved in the same buffer (see below).
(§1) The kinetics of puromycin reaction on the 70S or 80S ribosomes were recorded and analyzed essentially as described. An aliquot (4.5 μl) of the complex prior to addition of puromycin was quenched in 30 μl of saturated MgSO4 in 0.1 M NaOAc to represent the zero-time point. Five microliters of 500 µM puromycin (in the same buffer as that used for the ribosomal complex) was added to 45 μl of the complex to initiate the reaction, yielding estimated final concentrations: 30 nM for the ribosome, 1 µM mRNA, 66 nM [^35S]-fMet-tRNA^fMet, 50 µM puromycin, and varying concentrations of PRn and GRn peptides, from 30 nM to 2 μM. After 6, 15, 30, 90 s, and 5, 15, 30, 60, and (for slower reactions) 180 min, 5-μl aliquots were quenched in 30 μl of saturated MgSO4 in 0.1 M NaOAc. All quenched samples were extracted with 700 μl ethyl-acetate. 600 μl of the extract were mixed with 3.5 ml of Econo-Safe scintillation cocktail (RPI), and the amount of released [^35S]-labeled dipeptide was measured for each time point using a scintillation counter (Beckman Coulter, Inc.).
(§2) All time progress curves were recorded in duplicates, using independently prepared 70S or 80S complexes. Reaction rates were calculated using single-exponential or double-exponential (80S complexes) regressions for different concentrations of PRn and GRn using GraphPad Prism 8. Hyperbola fitting in Gnuplot was used to derive apparent Ki-values.

rabbit 80S ribosomes = experiment: Kinetic peptidyl transfer (puromycin) assay on rabbit 80S ribosomes; format: biochemical
Source text: To test the effects of PR20 on the mammalian peptidyl transferase, 80S ribosomes were purified from rabbit reticulocyte lysate (Green Hectares) and dissociated into 40S and 60S subunits as described in the section entitled “Cryo-EM complex of mammalian 80S ribosome with PR20”. A model leaderless mRNA fragment placing the AUG codon in the P-site and the UUC codon in the A site (CCAC AUG UUC CCCCCCCCCCCCCCCCCC), was synthesized by IDT. The 80S•mRNA•fMet-tRNA^fMet complex with PRn (where n = 10, 20, or 40) or GR20 was assembled as follows. one micrometer 60S subunit was mixed with the DPR (starting with the initial DPR concentration of 33x relative to its final concentration in the reaction) in Assembly Buffer containing 20 mM Tris-acetate (pH 7.0), 100 mM KOAc, 10 mM Mg(OAc)2, and the mixture was incubated for 5 min at 30 °C. […] 1095 nM [^35S]-fMet-tRNA^fMet and the 60S solution were added (0.5 volumes of the 40S solution), resulting in the following concentrations: 330 nM 60S, 400 nM 40S, 730 nM tRNA, 11 µM mRNA and 11x of final concentration of a DPR in the buffer (20 mM Tris-acetate (pH 7.0), 100 mM KOAc, 10 mM Mg(OAc)2). The solution was incubated for 5 min at 30 °C. The solution was diluted ten times with the same buffer, then puromycin (prepared in the same buffer) was added and time progress curves were recorded.
as §1, §2

[5] = 30 nM 70S, 50 µM puromycin, 37 °C, read-out: apparent inhibition constant (Ki) of peptidyl transfer

Molecule: GR20 (poly-glycine-arginine, 20 repeats) (peptide)
- apparent inhibition constant (Ki) of peptidyl transfer from [35S]-fMet-tRNAfMet to puromycin on E. coli 70S ribosomes [1]: 164 nM
- IC50 of translation of nanoluciferase mRNA in 33% rabbit reticulocyte lysate [2]: 425 nM
- IC50 of translation of nanoluciferase mRNA in 50% rabbit reticulocyte lysate [2]: 640 nM

Molecule: COC(=O)C[C@](O)(CCC(C)(C)O)C(=O)O[C@@H]1C(OC)=C[C@]23CCCN2CCc2cc4c(cc2[C@H]13)OCO4 [Harringtonine]
- IC50 [3]: 10 to 500 nM
- site of ribosome accumulation, toe-printing of polysome fractions [4]: accumulate at the start codon
- Ratio (START to CDS) [4]: 6.47
- Normalized ratio START/ORF [4]: 2.399
- normalized ratio START to CDS, MEAN ([4]; Fig. 2g): 9.437
- normalized ratio START to CDS, MEAN ([4]; Fig. 2h independent repeat): 4.139

Molecule: PRPRPRPRPRPRPRPRPRPR [PR10]
- Ki (E. coli 70S ribosomes; source data of Fig. 3b, unit printed in the legend b16 only, read-out: Ki, app of fMet-Pmn release from 70S): 1050 nM
- effect on peptidyl transfer on rabbit 80S (rabbit 80S ribosomes; 2 µM, n=2): no inhibition

Molecule: PRPRPRPR [PR4]
- Ki (E. coli 70S ribosomes; [5]): > 2000 nM
- effect on peptidyl transfer on 70S (E. coli 70S ribosomes; 2 µM): fail to inhibit peptidyl transfer

Molecule: GRGRGRGR [GR4]
- Ki (E. coli 70S ribosomes; [5]): > 2000 nM
- effect on peptidyl transfer on 70S (E. coli 70S ribosomes; 2 µM): fail to inhibit peptidyl transfer

Molecule: C[C@@H]1C[C@@H]([C@H](O)CC2CC(=O)NC(=O)C2)C(=O)[C@@H](C)C1 [Cycloheximide]
- IC50 [3]: 10 to 500 nM
- site of ribosome accumulation, toe-printing of polysome fractions [4]: accumulate within the open reading frame
- Ratio (START to CDS) [4]: 3.435
- Normalized ratio START/ORF [4]: 1.274
- normalized ratio START to CDS, MEAN ([4]; Fig. 2g): 0.5607
- normalized ratio START to CDS, MEAN ([4]; Fig. 2h independent repeat): 0.326

Molecule: N=C(N)NCCC[C@H](N)C(=O)O [L-arginine, reference compound]
- effect on peptidyl transfer on 70S (E. coli 70S ribosomes; 50 µM (Supplementary Fig. 2b)): does not affect the peptidyl transfer reaction
- effect on nanoluciferase translation in RRL ([3]; 100 μM): not inhibited
- effect on peptidyl transfer on rabbit 80S (rabbit 80S ribosomes; 50 µM): does not

Molecule: GRGRGRGRGRGRGRGRGRGR [GR10 (poly-glycine-arginine, 10 repeats)]
- apparent inhibition constant (Ki) of peptidyl transfer to puromycin on E. coli 70S ribosomes [1]: 600 nM

B1: PR40: poly-PR peptide of 40 repeats (peptide)
peptide: PRPRPRPRPRPRPRPRPRPRPRPRPRPRPRPRPRPRPRPRPRPRPRPRPRPRPRPRPRPRPRPRPRPRPRPRPRPRPRPR
- Ki (E. coli 70S ribosomes; [5]): ≤ 30 nM
- Ki (rabbit 80S ribosomes; rabbit 80S): ≤ 30 nM

Molecule: PRPRPRPRPRPRPRPRPRPR [PR10 (poly-proline-arginine, 10 repeats)]
- apparent inhibition constant (Ki) of peptidyl transfer to puromycin on E. coli 70S ribosomes [1]: 1000 nM
